Data taken from patent publication US8273708B2, “Methods of treatment of ocular surface pathologies” (priority 2004, dated 2012).
Entries after “also recorded” stand apart in the source; their conditions may differ.

Key:
Type in all cases: in vivo, rat
[1] = test system: male Wistar rats; assay: Polynuclear eosinophil infiltration induced by benzalkonium chloride, Direct Red count in the venous plexus region of the sclera; conditions: for number of polynuclear eosinophils in the venous plexus region of the sclera after benzalkonium chloride: 10 μl of 0.5% benzalkonium chloride, after six hours
Description: Upper panel: histological images after Direct Red staining. Lower panel: eosinophil count in venous plexus of sclera, density per square mm (means±SD; n=8)
(§1) Animals: Four groups of male Wistar rats (Janvier, Le Genest St Isle, France), weighing 300-350 g were used: BAK+sodium carmellose, BAK+ML-7, PBS+sodium carmellose, PBS+ML-7; PBS and sodium carmellose being the solvents for benzalkonium (BAK) and ML-7, respectively.
(§2) ML-7 pretreatment: Animals received a local application of ML-7 (Sigma, France) 24 hours, 12 hours and 30 minutes before chemical induction of ocular inflammation. Thus, each eye was treated with 100 μg of ML-7 in 10 μl of eye drops (sodium carmellose 4 mg/0.4 ml) or with 10 μl of eye drops alone.
(§3) Inflammation induction: Thirty minutes after the third application of ML-7 or the eye drops alone, each eye was treated with 10 μl of 0.5% benzalkonium chloride (Sigma-Aldrich, Steinheim, Germany) in PBS or 10 μl of PBS alone. After 10 minutes, the eyes of all the rats were rinsed with 250 μl of sterile water.
(§4) Eye excision: Six hours after application of benzalkonium chloride or PBS, the animals were anesthetized with pentobarbital (80 mg/kg IP) (Ceva Santé Animale, Libourne, France), sacrificed by decapitation and the eyes were immediately excised to be frozen directly or after surface biotinylation (tight junction permeability test).
Measurement of polynuclear eosinophil infiltration: Polynuclear eosinophil leukocytes were specifically stained with Direct Red and counted in the venous plexus region of the sclera. […] Eosinophils, stained bright pink against a light background, were counted in the venous plexus region of the sclera under a Nikon Eclipse 90 i microscope equipped with a Nikon DXM1200F digital camera. The area of the zone to be counted was determined with Nikon Lucia image analysis software release 4.8 and counts were expressed as the number of eosinophils per mm^2. […]

[2] = test system: corneal epithelial tight junctions; assay: Corneal tight junction permeability by surface biotinylation after benzalkonium chloride
Description: Images obtained by fluorescence of the external corneal surface in the rat after ex vivo avidin-fluorescein biotinylation of the whole eye by avidin-fluorescein following cryosection (6 μm) (external side of cornea facing up)
as §1, §2, §3, §4
Measurement of tight junction permeability—Surface biotinylation: The permeability of tight junctions in the cornea was evaluated by biotinylation of surface proteins. The chosen biotinylation reagent is water-soluble and contains an aminocaproyl spacer group, which lowers steric hindrance during avidin coupling. Immediately after excision, the eyes were incubated for 30 minutes at room temperature with gentle stirring in a solution containing sodium biotinamidohexanecarboxylate and 3-sulfó-N-hydroxysuccinimide at 1 mg/mL, in PBS (Sigma-Aldrich, Steinheim, Germany). The eyes were then rinsed three times in PBS, embedded in protective tissue freezing medium (Tissue Tek® OCT compound, Sakura Finetek, Inc., CA, USA), frozen in liquid nitrogen and stored at −80° C. Six micrometer thick slices were prepared with a cryostat and fixed in cold acetone for 10 minutes. After drying, the slices were labelled for 30 minutes in the dark with avidin D-FITC (Vector Laboratories, Inc., Burlingame, Calif., USA) diluted 250-fold in PBS-Tween containing 1% BSA, then rinsed three times for 5 minutes in PBS-Tween, in the dark. The slides were then mounted in fluorescence medium (Cappel fluorostab embedding medium, MP Biomedicals, Inc., Aurora, Ohio, USA) and examined under a Nikon Eclipse 90 i fluorescence microscope equipped with a Nikon DXM1200F digital camera. The images were analyzed with Nikon Lucia image analysis software release 4.8. As no significant differences in corneal thickness were observed between the different experimental groups (102±10 μm, 110±9 μm, 115±13 μm and 124±8 μm for BAK+sodium carmellose, BAK+ML-7, PBS+sodium carmellose and PBS+ML-7 groups, respectively), the depth of fluorescence labelling reflects the permeability of external corneal epithelial tight junctions to the biotinylation reagent.

[3] = test system: male Wistar rats; assay: Ocular inflammation (neutrophil infiltration) induced by corneal instillation of benzalkonium chloride: total MPO activity in the eye
Description: FIG. 3: Experimental protocol for example 2. Animals received two pretreatments with ML-7 [1 mg/kg given by the intraperitoneal (IP) route] on the day before instillation of 0.1% BAK (in the morning and evening) and one pretreatment two hours before instillation. They were sacrificed six hours after rinsing and the eyes were excised in order to assay MPO activity.
The benzalkonium salt (BAK) corneal irritation model has been widely used in both in vitro and in vivo studies. The protocol is based on an in vitro study (Xu et al., 2000) adapted to in vivo conditions in the rat after preliminary tests to adjust times and concentrations.
Animals: Male Wistar rats (200-250 g) housed in individual cages were used. Animals were given a standard diet (UAR, Villemoisson, Epinay sur Orge) and drinking water ad libitum.
Inflammation induction: Inflammation was induced by instillation in the eye of 10 μl of 0.1% BAK solution (1 mg/ml). The control eye was instilled with 10 μl of 1×PBS. Ten minutes after instillation, the eyes were rinsed with 1 ml of sterile water.
(§5) Assay of myeloperoxidase activity: The eyes were excised and homogenized in phosphate buffer with the aid of a polytron. They were then subjected to three freeze/thaw cycles (liquid nitrogen/37° C. water bath). After centrifugation at 10,000 rpm for 15 min at 4° C., the pellets were resuspended in HTAB buffer and sonicated for 10 sec. After a second centrifugation, MPO activity was assayed in the supernatant in a reaction buffer containing O-dianisidine hydrochloride and 0.0005% hydrogen peroxide. The change in absorbance at 460 nm was measured on a spectrophotometer.
Experimental protocol: Animals received two pretreatments with ML-7 (1 mg/kg IP) on the day before instillation of 0.1% BAK (morning and evening) and one pretreatment two hours before instillation. They were sacrificed six hours after rinsing and the eyes were excised in order to assay total myeloperoxidase (MPO) activity (FIG. 3).

[4] = test system: male Wistar rats; assay: Ocular inflammation induced by corneal instillation of P48/80: total MPO activity in the whole eye; conditions: ML-7 1 mg/kg IP, two pretreatments the day before and one two hours before instillation
Description: FIG. 1: Experimental protocol for example 1.
The corneal irritation model which was used has been validated in the rat (Allansmith et al., Acta Ophtalmol, 1989; 192S: 145-153) and in the rabbit (Bucolo et al., J. Ocul. Pharmacol, 1993; 9: 321-332).
Animals: Three groups of eight male Wistar rats (200-250 g) housed in individual cages were used. Animals were given a standard diet (UAR, Villemoisson, Epinay sur Orge) and drinking water ad libitum.
The control eye was instilled with 10 μl of 1×PBS.
as §5, with “assayed from” for “assayed in”
They were sacrificed six hours after instillation and the eyes were excised in order to assay total myeloperoxidase (MPO) activity in the whole eye (FIG. 1).

Row | Compound | effect of ML-7 on benzalkonium chloride-induced polynuclear eosinophil infiltration ([1]; local application, 100 μg ML-7 in 10 μl eye drops, 24 hours, 12 hours and 30 minutes before BAK) | corneal thickness ([2]; BAK+ML-7 group) | corneal thickness ([2]; PBS+ML-7 group) | effect of ML-7 on the BAK-induced increase in diffusion and thickening of the fluorescent zone ([2]; local pretreatment, 100 μg ML-7 per eye, 24 hours, 12 hours and 30 minutes before BAK) | effect of ML-7 on the benzalkonium chloride-induced increase in MPO activity ([3]; ML-7 1 mg/kg IP, two pretreatments the day before and one two hours before instillation) | effect of ML-7 on the P48/80-induced increase in MPO activity [4] | number of polynuclear eosinophils in the venous plexus region of the sclera after benzalkonium chloride [1] | number of polynuclear eosinophils in the venous plexus region of the sclera after benzalkonium chloride ([1]; listed as BAK) | effect of benzalkonium chloride on corneal epithelial tight junctions (fluorescent penetration) ([2]; 10 μl of 0.5% benzalkonium chloride, after six hours) | corneal thickness ([2]; BAK+sodium carmellose group) | total MPO activity in the eye after benzalkonium chloride ([3]; 10 μl of 0.1% BAK, rinsed after 10 minutes, after six hours) | increase in total MPO activity after benzalkonium chloride ([3]; versus baseline 8.2±1.9 U/g.protein, after six hours)
1 | O=S(=O)(c1cccc2c(I)cccc12)N1CCCNCC1 [ML-7, 1-(5-iodonaphthalene-1-sulfonyl)-1H-hexahydro-1,4-diazepine] | significantly inhibited | 110±9 μm | 124±8 μm | suppressed | suppressed; also recorded: inhibited | prevented; also recorded: inhibited |  |  |  |  |  | 
2 | benzalkonium chloride |  |  |  |  |  |  | highly significant increase | highly significant | opening of corneal epithelial tight junctions | 102±10 μm | 26.4±7.2 U/g.protein | 321%
